Results published in patent US20220273659A1, “HETEROCYCLIC COMPOUNDS AS KINASE INHIBITORS” (NUVATION BIO INC., priority 2019, published 2022).
Read-outs that look alike come from different tables or passages of the source.

Key:
[1] = biological target: T1, CDK1 (cyclin B) (Homo sapiens, UniProt P06493); assay: Z'-LYTE kinase assay; format: biochemical
T1 construct: purchased Invitrogen Life Technologies (assay service)
Protocol: The plates were shaken for 30 seconds, and incubated for 60 minutes at room temperature. […] The plates were read on fluorescence plate reader with Dual emission at 445 nm and 520 nm.
The following equations were used for Z′-LYTE™ Screening Assay Data Analysis.

[2] = biological target: T2, CDK4 (Homo sapiens, UniProt P11802); assay: In vitro kinase inhibition IC50, luminescence (ADP Glo), retinoblastoma substrate; format: biochemical; conditions: read-out: CDK4/D1 IC50
T2 construct: purchased Invitrogen PR8064A
T2 sequence (P11802 whole entry): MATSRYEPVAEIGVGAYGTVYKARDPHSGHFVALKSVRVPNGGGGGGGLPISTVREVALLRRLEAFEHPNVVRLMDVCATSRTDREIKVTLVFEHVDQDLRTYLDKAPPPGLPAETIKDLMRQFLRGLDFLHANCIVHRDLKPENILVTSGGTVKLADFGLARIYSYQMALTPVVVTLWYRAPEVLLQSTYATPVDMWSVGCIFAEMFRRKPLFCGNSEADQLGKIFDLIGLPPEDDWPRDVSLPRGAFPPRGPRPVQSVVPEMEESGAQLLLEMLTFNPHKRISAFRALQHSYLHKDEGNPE
T2 sequence (P24385 whole entry partner): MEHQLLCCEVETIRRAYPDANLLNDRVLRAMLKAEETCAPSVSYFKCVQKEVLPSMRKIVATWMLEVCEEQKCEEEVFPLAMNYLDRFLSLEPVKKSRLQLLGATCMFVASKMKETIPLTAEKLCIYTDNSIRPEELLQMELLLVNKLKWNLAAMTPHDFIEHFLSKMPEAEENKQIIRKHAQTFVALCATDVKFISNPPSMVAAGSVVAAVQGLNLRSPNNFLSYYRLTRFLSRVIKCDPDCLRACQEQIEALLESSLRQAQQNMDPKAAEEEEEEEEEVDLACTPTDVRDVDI
Procedure, shortened: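 CDK4 enzyme (5 nM, Invitrogen) was combined with test compound and a mix of retinoblastoma substrate (1 μM) plus ATP (25 μM) in kinase buffer, 30 μL/well in 96-well half area white plates. After 2H at room temperature, ADP Glo reagent stopped the reaction for 45 min, then detection reagent was added and luminescence was read.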

[3] = biological target: T3, CDK6 (Homo sapiens, UniProt Q00534); assay: as above; format: biochemical; conditions: read-out: CDK6/D1 IC50
T3 construct: purchased Invitrogen PR8422B
T3 sequence (Q00534 whole entry): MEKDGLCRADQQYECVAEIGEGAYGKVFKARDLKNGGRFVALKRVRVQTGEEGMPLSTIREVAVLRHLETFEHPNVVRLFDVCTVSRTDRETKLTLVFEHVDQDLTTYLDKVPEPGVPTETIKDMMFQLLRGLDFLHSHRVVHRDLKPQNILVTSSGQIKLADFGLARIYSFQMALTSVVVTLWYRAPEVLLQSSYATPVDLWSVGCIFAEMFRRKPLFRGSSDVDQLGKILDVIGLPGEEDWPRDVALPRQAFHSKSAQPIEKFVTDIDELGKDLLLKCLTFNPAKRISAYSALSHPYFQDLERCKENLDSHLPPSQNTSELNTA
T3 sequence (P24385 whole entry partner): as the sequence (P24385 whole entry partner) above
Procedure, shortened: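 Recombinant CDK6 (5 nM) with retinoblastoma substrate (1 μM) and 25 μM ATP, compound at final 0.1–200 nM, incubated 2 h at room temperature. ADP formed detected by ADP-Glo luminescence. IC50 from four-parameter logistic fit of percent inhibition.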

[4] = system: MCF-7 breast adenocarcinoma cells; assay: Cancer cell proliferation assay, single agent (cell viability); format: cell-based; conditions: Homo sapiens, MCF7, Table 4; Rb positive; treatment 144 Hr with medium change at 72 Hr; Cell Titer-Glo or resazurin
Procedure, shortened: (§1)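 Cells seeded day 1, then exposed on day 2 to 7–9 compound concentrations (e.g. 1.1 nM–10 μM); BT-549 for 24 h, MCF-7 and DU4475 for 144 h with medium change at 72 h. Viability by CellTiter-Glo or resazurin; IC50 from variable-slope sigmoidal fit.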

[5] = system: DU4475 breast carcinoma cells; assay: as above; format: cell-based; conditions: Homo sapiens, DU-4475; Table 4; Rb negative; treatment 144 Hr with medium change at 72 Hr; Cell Titer-Glo or resazurin
Procedure, shortened: as §1

[6] = biological target: T4, CDK2 (cyclin A) (Homo sapiens, UniProt P24941); assay: Z'-LYTE kinase assay; format: biochemical
T4 construct: purchased Invitrogen Life Technologies (assay service)
Procedure, shortened: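 FRET-based Z′-LYTE read-out using 1.22–10.3 ng CDK2/cyclin A with Ser/Thr 12 peptide (2 μM in the 2× mix) and ATP (31 μM as the 4× solution), in HEPES pH 7.5, MgCl2, EGTA and BRIJ-35, for 60 min at room temperature. After 1 h of development, the 445/520 nm emission was read, and percent inhibition was fitted to a four-parameter logistic curve for IC50.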

[7] = biological target: T5, FMS kinase (Homo sapiens, UniProt P07333); assay: LanthaScreen Eu Kinase Binding Assay (ATP, fluorescent-PolyGT substrate); format: biochemical
T5 construct: purchased Invitrogen (Life Technologies)
T5 sequence (P07333 20-972): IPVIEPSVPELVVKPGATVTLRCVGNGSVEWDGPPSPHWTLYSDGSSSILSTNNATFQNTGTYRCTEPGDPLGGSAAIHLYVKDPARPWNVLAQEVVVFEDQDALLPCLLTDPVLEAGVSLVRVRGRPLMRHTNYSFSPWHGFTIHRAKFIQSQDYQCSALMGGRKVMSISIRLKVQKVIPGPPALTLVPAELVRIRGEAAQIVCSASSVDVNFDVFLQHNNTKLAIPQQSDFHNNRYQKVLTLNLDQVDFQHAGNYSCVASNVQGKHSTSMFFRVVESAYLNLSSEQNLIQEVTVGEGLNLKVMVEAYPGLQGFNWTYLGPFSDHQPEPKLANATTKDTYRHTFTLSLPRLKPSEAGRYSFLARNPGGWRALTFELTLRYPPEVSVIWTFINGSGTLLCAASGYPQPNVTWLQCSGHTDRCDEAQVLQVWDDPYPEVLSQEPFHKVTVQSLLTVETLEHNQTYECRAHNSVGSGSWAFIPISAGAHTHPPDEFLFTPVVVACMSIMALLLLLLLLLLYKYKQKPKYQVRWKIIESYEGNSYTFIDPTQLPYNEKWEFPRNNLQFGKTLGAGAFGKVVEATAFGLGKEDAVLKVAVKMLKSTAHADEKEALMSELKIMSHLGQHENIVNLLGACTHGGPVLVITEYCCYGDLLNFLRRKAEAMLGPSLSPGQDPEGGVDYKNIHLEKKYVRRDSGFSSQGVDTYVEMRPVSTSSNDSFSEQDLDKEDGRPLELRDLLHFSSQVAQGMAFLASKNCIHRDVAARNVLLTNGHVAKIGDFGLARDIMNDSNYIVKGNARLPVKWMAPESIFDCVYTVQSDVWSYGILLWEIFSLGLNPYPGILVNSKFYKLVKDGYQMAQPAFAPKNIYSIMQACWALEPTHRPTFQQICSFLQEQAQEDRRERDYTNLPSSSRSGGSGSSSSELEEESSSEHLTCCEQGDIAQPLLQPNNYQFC
Procedure, shortened: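 Kinase (1.25 nM) preincubated 10 min with 3-fold compound dilutions, then ATP 10 μM and fluorescent PolyGT substrate 200 nM added for 1 h in the dark at room temperature. Stopped with Tb-antibody (4 nM) and EDTA 20 mM; TR-FRET at 340 nm excitation, 495/520 nm emission; IC50 from four-parameter fit.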

T1 sequence (P06493 whole entry): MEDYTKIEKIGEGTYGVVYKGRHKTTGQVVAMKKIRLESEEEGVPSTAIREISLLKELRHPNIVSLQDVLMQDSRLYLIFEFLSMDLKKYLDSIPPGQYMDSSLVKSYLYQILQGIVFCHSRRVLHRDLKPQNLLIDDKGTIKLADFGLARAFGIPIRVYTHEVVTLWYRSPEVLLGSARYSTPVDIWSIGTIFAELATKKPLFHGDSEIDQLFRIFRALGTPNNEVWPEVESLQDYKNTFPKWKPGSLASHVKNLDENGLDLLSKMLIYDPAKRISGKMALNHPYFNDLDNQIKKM
T1 sequence (P14635 whole entry partner): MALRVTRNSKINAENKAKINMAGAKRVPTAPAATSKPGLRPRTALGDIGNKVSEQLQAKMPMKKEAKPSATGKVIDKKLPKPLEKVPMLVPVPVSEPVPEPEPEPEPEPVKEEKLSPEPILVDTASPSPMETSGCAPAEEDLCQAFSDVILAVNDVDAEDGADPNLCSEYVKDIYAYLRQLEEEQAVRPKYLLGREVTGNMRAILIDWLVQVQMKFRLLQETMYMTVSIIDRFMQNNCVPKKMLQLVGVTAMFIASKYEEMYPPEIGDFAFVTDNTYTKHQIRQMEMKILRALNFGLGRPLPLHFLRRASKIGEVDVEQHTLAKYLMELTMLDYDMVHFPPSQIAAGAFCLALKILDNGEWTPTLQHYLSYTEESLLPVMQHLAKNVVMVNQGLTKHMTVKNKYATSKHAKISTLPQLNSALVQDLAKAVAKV

| IC50 [1] [nM] | IC50 [2] [nM] | IC50 [3] [nM] | IC50 [4] [nM] | IC50 [5] [nM] | IC50 [6] [nM] | IC50 [7] [nM] | IC50 ([1]; read-out: CDK1/B IC50) [nM] | Compound |
| --- | --- | --- | --- | --- | --- | --- | --- | --- |
| 157 | 1.3 | 7.1 | 310 | 1040 | < 1 | 539 | – | N#Cc1cc2cnc(NC3CCN(S(=O)(=O)c4ccc(F)cc4)CC3)nc2n(C2CCCC2)c1=O [Compound No. 361, 8-cyclopentyl-2-((1-((4-fluorophenyl)sulfonyl)piperidin-4-yl)amino)-7-oxo-7,8-dihydropyrido[2,3-d]pyrimidine-6-carbonitrile] |
| – | 48 | 15 | 205 | 1400 | 18 | 1160 | 117 | CCC(C)n1c(=O)c(C#N)cc2cnc(NC3CCN(S(C)(=O)=O)CC3)nc21 (stereo not shown) [Compound No. 351, 8-(sec-butyl)-2-((1-(methylsulfonyl)piperidin-4-yl)amino)-7-oxo-7,8-dihydropyrido[2,3-d]pyrimidine-6-carbonitrile] |
| 667 | 5 | 6 | – | 690 | 70 | 838 | – | COCCS(=O)(=O)N1CCC(Nc2ncc3cc(C#N)c(=O)n(C4CCCC4)c3n2)CC1 [Compound No. 374, 8-cyclopentyl-2-((1-((2-methoxyethyl)sulfonyl)piperidin-4-yl)amino)-7-oxo-7,8-dihydropyrido[2,3-d]pyrimidine-6-carbonitrile] |
| 1460 | 159 | 58 | – | 2440 | 170 | 402 | – | CS(=O)(=O)N1CCC(Nc2ncc3cc(C#N)c(=O)n(-c4c(F)cccc4F)c3n2)CC1 [Compound No. 376, 8-(2,6-difluorophenyl)-2-((1-(methylsulfonyl)piperidin-4-yl)amino)-7-oxo-7,8-dihydropyrido[2,3-d]pyrimidine-6-carbonitrile] |
| 325 | 3 | 5 | – | 670 | 30 | 402 | – | N#Cc1cc2cnc(NC3CCN(S(=O)(=O)CCCCCCO)CC3)nc2n(C2CCCC2)c1=O [Compound No. 378, 8-cyclopentyl-2-((1-((6-hydroxyhexyl)sulfonyl)piperidin-4-yl)amino)-7-oxo-7,8-dihydropyrido[2,3-d]pyrimidine-6-carbonitrile] |
| – | 132 | 147 | – | 615 | 303 | 13 | 1310 | N#Cc1cc2cnc(Nc3ccc4c(c3)CCNC4)nc2n(-c2c(F)cccc2F)c1=O [Compound No. 375, 8-(2,6-difluorophenyl)-7-oxo-2-((1,2,3,4-tetrahydroisoquinolin-6-yl)amino)-7,8-dihydropyrido[2,3-d]pyrimidine-6-carbonitrile] |
| – | > 200 | > 200 | > 10000 | > 30000 | 235 | > 5000 | 2270 | CS(=O)(=O)N1CCC(Nc2ncc3cc(C#N)c(=O)n(C4COCC4O)c3n2)CC1 (stereo not shown) [Compound No. 350, 8-(4-hydroxytetrahydrofuran-3-yl)-2-((1-(methylsulfonyl)piperidin-4-yl)amino)-7-oxo-7,8-dihydropyrido[2,3-d]pyrimidine-6-carbonitrile] |
| – | 1.4 | 12 | 330 | 3240 | 1870 | > 5000 | > 5000 | N#Cc1cc2cnc(NC3CCN(S(=O)(=O)C(F)F)CC3)nc2n(C2CCCC2)c1=O [Compound No. 359, 8-cyclopentyl-2-((1-((difluoromethyl)sulfonyl)piperidin-4-yl)amino)-7-oxo-7,8-dihydropyrido[2,3-d]pyrimidine-6-carbonitrile] |
| – | > 200 | > 200 | – | > 10000 | 705 | 1800 | > 4170 | CS(=O)(=O)N1CC(Nc2ncc3cc(C#N)c(=O)n(C4CCCC4)c3n2)C1 [Compound No. 372, 8-cyclopentyl-2-((1-(methylsulfonyl)azetidin-3-yl)amino)-7-oxo-7,8-dihydropyrido[2,3-d]pyrimidine-6-carbonitrile] |
| – | 15 | 11 | – | 365 | 25 | 27 | 420 | N#Cc1cc2cnc(Nc3ccc(S(N)(=O)=O)cc3)nc2n(C2CCCC2)c1=O [Compound No. 377, 4-((6-cyano-8-cyclopentyl-7-oxo-7,8-dihydropyrido[2,3-d]pyrimidin-2-yl)amino)benzenesulfonamide] |
| – | > 173 | > 174 | 405 | 1240 | 668 | 3 | 1530 | N#Cc1cc2cnc(Nc3ccc4c(c3)CCNC4)nc2n(CC2CCCCC2)c1=O [Compound No. 347, 8-(cyclohexylmethyl)-7-oxo-2-((1,2,3,4-tetrahydroisoquinolin-6-yl)amino)-7,8-dihydropyrido[2,3-d]pyrimidine-6-carbonitrile] |
| 143 | 69 | 21 | 1420 | 1130 | 29 | > 5000 | – | CCC(CC)n1c(=O)c(C#N)cc2cnc(NC3CCN(S(C)(=O)=O)CC3)nc21 [Compound No. 352, 2-((1-(methylsulfonyl)piperidin-4-yl)amino)-7-oxo-8-(pentan-3-yl)-7,8-dihydropyrido[2,3-d]pyrimidine-6-carbonitrile] |
| 1380 | 62 | 55 | 725 | 6840 | 219 | 31 | – | CS(=O)(=O)N1CCC(Nc2ncc3cc(C#N)c(=O)n(CC4CCCCC4)c3n2)CC1 [Compound No. 348, 8-(cyclohexylmethyl)-2-((1-(methylsulfonyl)piperidin-4-yl)amino)-7-oxo-7,8-dihydropyrido[2,3-d]pyrimidine-6-carbonitrile] |
| 912 | 4 | 4 | – | 200 | 42 | 1440 | – | Cn1ccc(S(=O)(=O)N2CCC(Nc3ncc4cc(C#N)c(=O)n(C5CCCC5)c4n3)CC2)n1 [Compound No. 373, 8-cyclopentyl-2-((1-((1-methyl-1H-pyrazol-3-yl)sulfonyl)piperidin-4-yl)amino)-7-oxo-7,8-dihydropyrido[2,3-d]pyrimidine-6-carbonitrile] |
| – | 17 | 15 | 569 | 1990 | 169 | – | 791 | N#Cc1cc2cnc(Nc3ccc4c(c3)CN(CCN)CC4)nc2n(C2CCCC2)c1=O [Compound No. 65, 2-((2-(2-aminoethyl)-1,2,3,4-tetrahydroisoquinolin-7-yl)amino)-8-cyclopentyl-7-oxo-7,8-dihydropyrido[2,3-d]pyrimidine-6-carbonitrile] |
| 233 | 11 | 6 | 145 | 2440 | 8 | – | – | N#Cc1cc2cnc(NC3CCN(S(=O)(=O)N4CCOCC4)CC3)nc2n(C2CCCC2)c1=O [Compound No. 383, 8-cyclopentyl-2-(1-(morpholinosulfonyl)piperidin-4-ylamino)-7-oxo-7,8-dihydropyrido[2,3-d]pyrimidine-6-carbonitrile] |
